Test results published in ChEMBL document CHEMBL2074224, “Characterization of multidrug resistance-associated protein 2 in the hepatocellular disposition of 4-hydroxynonenal” (Arch Biochem Biophys, 2003).

Molecular target: ATP-binding cassette sub-family C member 2 (Rattus norvegicus, UniProt Q63120)
Assay: TP_TRANSPORTER: efflux in isolated rat hepatocytes (Wistar/TR-)
Type: functional, cell-based, Hepatocyte

Chain of ATP-binding cassette sub-family C member 2 (Q63120 whole entry): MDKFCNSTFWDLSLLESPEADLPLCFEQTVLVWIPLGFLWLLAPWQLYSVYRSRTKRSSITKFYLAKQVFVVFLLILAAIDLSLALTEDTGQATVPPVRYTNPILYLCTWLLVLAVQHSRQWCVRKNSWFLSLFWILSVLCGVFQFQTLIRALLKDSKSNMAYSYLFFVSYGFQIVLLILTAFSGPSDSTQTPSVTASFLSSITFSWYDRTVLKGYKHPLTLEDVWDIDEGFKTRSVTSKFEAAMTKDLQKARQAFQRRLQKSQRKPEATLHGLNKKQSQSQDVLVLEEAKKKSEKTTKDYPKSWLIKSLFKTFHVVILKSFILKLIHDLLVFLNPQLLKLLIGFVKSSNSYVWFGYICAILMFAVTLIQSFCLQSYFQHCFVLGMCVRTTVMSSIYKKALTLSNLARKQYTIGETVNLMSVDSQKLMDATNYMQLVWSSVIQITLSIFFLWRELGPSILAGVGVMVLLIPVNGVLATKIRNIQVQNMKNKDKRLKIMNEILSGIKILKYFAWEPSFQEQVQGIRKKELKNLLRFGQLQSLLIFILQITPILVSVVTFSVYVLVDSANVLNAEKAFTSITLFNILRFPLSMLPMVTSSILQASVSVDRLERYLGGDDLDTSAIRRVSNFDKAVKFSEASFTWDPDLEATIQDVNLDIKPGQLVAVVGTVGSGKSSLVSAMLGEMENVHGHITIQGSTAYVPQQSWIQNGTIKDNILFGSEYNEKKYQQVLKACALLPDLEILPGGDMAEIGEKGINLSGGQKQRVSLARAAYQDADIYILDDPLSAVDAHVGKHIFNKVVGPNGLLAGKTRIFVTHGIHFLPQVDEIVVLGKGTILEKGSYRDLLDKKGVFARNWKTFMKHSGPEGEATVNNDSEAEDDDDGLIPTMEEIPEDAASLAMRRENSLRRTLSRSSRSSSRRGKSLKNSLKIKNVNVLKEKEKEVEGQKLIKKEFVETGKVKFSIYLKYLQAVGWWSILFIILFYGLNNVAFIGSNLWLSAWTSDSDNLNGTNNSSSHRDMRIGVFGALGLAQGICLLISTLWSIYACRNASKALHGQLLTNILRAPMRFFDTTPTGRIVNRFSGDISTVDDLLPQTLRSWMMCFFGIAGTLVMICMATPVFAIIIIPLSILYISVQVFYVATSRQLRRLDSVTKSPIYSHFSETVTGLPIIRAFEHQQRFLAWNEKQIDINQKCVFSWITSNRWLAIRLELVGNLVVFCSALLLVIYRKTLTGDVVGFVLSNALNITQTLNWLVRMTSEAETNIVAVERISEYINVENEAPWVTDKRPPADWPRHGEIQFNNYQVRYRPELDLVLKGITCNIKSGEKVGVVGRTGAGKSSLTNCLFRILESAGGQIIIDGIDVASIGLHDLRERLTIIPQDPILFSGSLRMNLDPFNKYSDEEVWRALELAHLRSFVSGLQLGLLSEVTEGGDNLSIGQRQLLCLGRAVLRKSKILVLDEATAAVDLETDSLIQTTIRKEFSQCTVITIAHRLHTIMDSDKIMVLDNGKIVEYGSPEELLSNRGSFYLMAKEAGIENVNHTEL

Activity: substrate []
Compound: CCCCCC1OC(O)CC1SC[C@H](NC(=O)CC[C@H](N)C(=O)O)C(=O)NCC(=O)O (stereo partly specified)
